Experimental data reported in patent publication EP4379060A1, “HIGH-EFFICIENCY PRODUCTION OF HYDROXYECTOINE” (Universität des Saarlandes, priority 2022, dated 2024).

Columns and labels:
C. glutamicum [1] = assay: Microbioreactor cultivation at different initial ectoine levels (growth, on-line OD620); type: cell-based, Corynebacterium glutamicum ATCC 13032; settings: 30°C
Protocol: Cultivation of C. glutamicum in microbioreactors. Screening of C. glutamicum strains was carried out in 48-well flower plates with transparent bottom for online biomass sensing using a microbioreactor (BioLector, Beckman Coulter GmbH, Baesweiler, Germany, Baesweiler, Germany) at 1,300 rpm, 85% humidity and different temperatures, as given below. Two subsequent pre-cultures were conducted in shake flasks as described above. For main cultures, each well of the microtiter plate was filled with 1 mL of minimal glucose medium and inoculated to an initial OD660 of 0.5. Over the course of the cultivation, biomass was measured online as light backscatter at 620 nm. All experiments were conducted as triplicate.
In a first experiment the inventors examined if C. glutamicum, expressing ectD from P. stutzeri, can convert externally supplied ectoine into hydroxyectoine and, beneficially, excrete the latter (Fig. 1c). […]

C. glutamicum [2] = assay: Quantification of intracellular ectoines and free amino acids in cells grown with ectoine; type: cell-based, Corynebacterium glutamicum ATCC 13032; settings: 37°C, 10 h
Protocol: Cultivation of C. glutamicum in shake flask. Cultures of C. glutamicum were incubated in baffled shake flasks (10% filling volume) in an orbital shaker at 230 rpm (Multitron, Infors AG, Bottmingen, Switzerland). For pre-culturing, cells were first grown overnight in complex BHI medium using a single colony from a 2-day pre-incubated BHI agar plate as inoculum. Subsequently, cells were harvested (8500 xg, 5 min, RT), washed once with minimal medium, and used to inoculate a second pre-culture in minimal glucose medium. The second pre-culture was then harvested during the exponential phase (8500 xg, 5 min, RT), washed once, and used to inoculate the main culture, again in minimal medium. The temperature was set to 30°C for precultures and 37°C for main cultures. All experiments were conducted as triplicate.
Quantification of intracellular metabolites. To quantify intracellular amino acids and ectoines, 2 mL of mid-exponentially growing cells were sampled by fast filtration (cellulose nitrate filter, 0.2 µm, 47 mm, Sartorius, Göttingen, Germany) (Bolten CJ, Kiefer P, Letisse F, Portais J-C, Wittmann C: Sampling for Metabolome Analysis of Microorganisms. Analytical chemistry 2007, 79:3843-3849.), including twice washing of the cells on the filter with two volumes of 2.5% NaCl. The filters were then transferred into cups prefilled with a 220 µM α-amino butyric acid solution as internal standard for later quantification. […] The obtained supernatants were collected for analysis, and intracellular amino acids were quantified by HPLC (Hans MA, Heinzle E, Wittmann C: Quantification of intracellular amino acids in batch cultures of Saccharomyces cerevisiae. Appl Microbiol Biotechnol 2001, 56:776-779.).
Quantification of ectoine and hydroxyectoine. Concentrations of ectoine and hydroxyectoine were analyzed by HPLC (Agilent Series 1290 Infinity, Agilent, Santa Clara, CA, USA). […] External standards were applied for quantification.
Quantification of amino acids. Amino acid levels of cell lysates were quantified using HPLC (Agilent Series 1290 Infinity, Agilent, Santa Clara, CA, USA) with α-amino butyric acid as internal standard. For this, the analytes were derivatized with ortho-phthalaldehyde and 9-fluorenylmethyl chloroformate and were separated and quantified as described previously (Krömer J, Fritz M, Heinzle E, Wittmann C: In vivo quantification of intracellular amino acids and intermediates of the methionine pathway in Corynebacterium glutamicum. Analytical biochemistry 2005, 340:171-173.).
For this purpose, the inventors extracted and quantified intracellular ectoine, hydroxyectoine, and free proteinogenic amino acids from the three strains during mid exponential growth, i. e. after 10 h (Fig. 3). […]

[3] = hydroxyectoine producers, glucose + 5 mM ectoine

CC1=NC(C(=O)O)CCN1 (stereo not drawn) [ectoine, 1,4,5,6-tetrahydro-2-methyl-4-pyrimidinecarboxylic acid]
cell fitness (C. glutamicum [1]; increasing ectoine concentration, strains expressing MSM, VSA, HEL, SCO EctD variants): unchanged
cell fitness (specific growth rate) (C. glutamicum [1]; initial ectoine 5, 10, 15 mM, strains pClik and pCES PtufectD^PST): not affected
reduction of intracellular I-glutamic acid (C. glutamicum [2]; MSM strain, glucose + 5 mM ectoine, versus control without ectoine): up to 47%
intracellular pools of I-glutamic acid, I-glutamine, and I-proline (C. glutamicum [2]; ectoine added to non-producing control strain with empty pCES vector, 5 mM): strongly reduced
drop of intracellular level of I-glutamine (C. glutamicum [2]; [3]): up to 61%
drop of intracellular level of I-proline (C. glutamicum [2]; [3]): up to 50%
